In ChEMBL document CHEMBL1201862, “PubChem BioAssay data set” (2004):
Active and inactive are the calls of the source. Rule as the data show it, for most assays here: actives have a measured EC50 and inactives only a lower limit.

Key:
[1] = tested on: Streptococcus sp. 'group A'; assay: Streptococcus pyogenes SK(-)GAS viability under kanamycin – luminescence, BacTiterGlo, confirmation, counter-screen for streptokinase expression inhibitor project, dose response (AID 1900); assay type: functional, organism-based
Streptokinase A = molecular target: T1, Streptokinase A (Streptococcus pyogenes serotype M1, UniProt P10520); assay: viability-normalized secreted streptokinase activity reduction – plasminogen activation absorbance, OD405, dose response (AID 1914); assay type: functional, Streptococcus pyogenes M1 GAS;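 also: secreted streptokinase activity via plasminogen activation per viability signal from cell pellet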
T1 sequence (P10520 whole entry): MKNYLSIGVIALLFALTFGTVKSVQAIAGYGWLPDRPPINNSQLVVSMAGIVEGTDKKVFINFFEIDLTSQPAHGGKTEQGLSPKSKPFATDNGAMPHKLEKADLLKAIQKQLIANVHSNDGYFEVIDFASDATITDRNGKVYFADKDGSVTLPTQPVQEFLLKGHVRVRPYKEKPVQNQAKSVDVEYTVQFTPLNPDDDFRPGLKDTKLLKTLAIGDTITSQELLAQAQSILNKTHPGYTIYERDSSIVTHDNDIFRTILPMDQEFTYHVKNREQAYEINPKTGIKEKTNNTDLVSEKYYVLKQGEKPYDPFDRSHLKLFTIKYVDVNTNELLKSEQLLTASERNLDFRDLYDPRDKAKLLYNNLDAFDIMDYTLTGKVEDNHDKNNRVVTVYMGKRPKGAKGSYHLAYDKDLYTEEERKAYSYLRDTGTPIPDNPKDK

Streptococcus = assay: GAS UMAA2166 growth inhibition – luminescence, BacTiterGlo, counter-screen for streptokinase expression inhibitor project, dose response (AID 1915); assay type: functional, organism-based;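 also: potency for reduction of bacterial viability or growth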
[2] = Trypanosoma cruzi growth suppression in host cells – NIH3T3 host cells, beta-gal luminescence, confirmation (AID 2044); assay type: functional, cell-based;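 also: intracellular parasites grown in NIH/3T3 mouse fibroblasts as host cells; luminescent beta-galactosidase reporter signal from transgenic T. cruzi replicating inside host cells; inhibitors lower the luminescence signal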
[3] = Luminescence Cell-Based Dose Retest to Confirm Inhibitors of Cancer Stem Cells. [Related pubchem assays (depositor defined):AID2717, AID2721]; assay type: functional; conditions: Homo sapiens
[4] = NIH3T3 cell viability loss – ATP luminescence, mouse fibroblasts, counter-screen, dose response (AID 2010); assay type: functional, cell-based;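 also: cells exposed to compound for about 90 hours before reading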
[5] = molecular target: T2, Heat shock factor protein 1 (Mus musculus, UniProt P38532); assay: decrease of HSF1-responsive luciferase luminescence – cell-based, NIH3T3, dose retest, confirmation (AID 2382); assay type: functional;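 also: NIH3T3 fibroblasts with HSF1-driven luciferase reporter stressed by proteasome inhibitor MG132; luminescence from HSF1-driven luciferase expression after 8 hours of MG132 stress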
T2 sequence (P38532 whole entry): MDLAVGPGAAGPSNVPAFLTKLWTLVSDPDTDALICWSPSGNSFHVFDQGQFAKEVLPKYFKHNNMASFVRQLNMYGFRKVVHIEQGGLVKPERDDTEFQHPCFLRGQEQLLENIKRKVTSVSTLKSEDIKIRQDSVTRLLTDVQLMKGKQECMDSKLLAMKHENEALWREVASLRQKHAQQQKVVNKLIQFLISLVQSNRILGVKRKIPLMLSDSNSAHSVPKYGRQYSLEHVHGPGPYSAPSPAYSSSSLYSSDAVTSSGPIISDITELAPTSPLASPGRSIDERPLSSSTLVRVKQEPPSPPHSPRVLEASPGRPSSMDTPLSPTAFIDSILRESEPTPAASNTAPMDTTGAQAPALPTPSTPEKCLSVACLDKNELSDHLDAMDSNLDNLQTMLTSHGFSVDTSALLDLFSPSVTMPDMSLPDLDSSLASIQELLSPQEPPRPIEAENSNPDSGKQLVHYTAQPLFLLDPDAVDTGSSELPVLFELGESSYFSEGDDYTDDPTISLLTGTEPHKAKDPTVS

[6] = viability of uninfected HEp-2 cells – cell-based, HTS, cytotoxicity control for RSV inhibitor project, dose response (AID 2410); assay type: functional; conditions: human respiratory syncytial virus
[7] = molecular target: T2, Heat shock factor protein 1; assay: enhancement of HSF1-driven luciferase signal – cell-based, NIH3T3, luminescence, dose retest, confirmation (AID 435004); assay type: functional;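 also: stress induced by proteasome inhibitor MG132 added 30 min after compound; luciferase reporter driven by HSF1 response element in NIH3T3 cells; actives raise luminescence as potentiators of the MG132 stress response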
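For AC50 in this document: cells exposed to compound for roughly 70 hours or longer before luminescence read.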

SMILES | EC50 [1] | EC50 (Streptokinase A) | EC50 (Streptococcus) | further results
Cc1ccc(Oc2ccc3c(c2)C(=O)N(c2cccc4cccnc24)C3=O)cc1 | 25.6 µM (active) | 25.3 µM (active) | > 150 µM (not active) | 
O=C(Nc1ccc(C(=O)NCc2ccc(F)cc2)cc1)C1=CSCCO1 | > 150 µM (not active) | > 150 µM (not active) | > 150 µM (not active) | 
Cc1cc(C)c(OCC(=O)N2CCN(c3ncc(C(F)(F)F)cc3Cl)CC2)c(C)c1 | 12.8 µM (active) | 7.69 µM (active) | 23.8 µM (active) | 
CC(C)(C)NC(=O)C1CC2CCCCC2CN1 (centres undefined) | > 150 µM (not active) | > 150 µM (not active) | > 150 µM (not active) | 
CCN(CC)CCSc1nnc2c3ccccc3n(Cc3ccccc3)c2n1 |  |  |  | EC50 [2]: 0.284 µM (active); AC50 [3]: 0.829 µM (active); EC50 [4]: > 60 µM (not active)
Nc1nc(CSC(=S)N2CCCCC2)nc(Nc2ccccc2)n1 |  |  |  | EC50 [5]: > 195 µM (not active)
CSc1cccc(NS(=O)(=O)c2cc(Br)cnc2N)c1 |  |  |  | EC50 [5]: > 195 µM (not active)
O=C(Nc1nc2ccccc2n1CCOc1ccccc1)c1ccco1 | 4.16 µM (active) | > 150 µM (not active) | 9.64 µM (active) | 
N#Cc1ccc(C(=O)Nc2nc(SCc3ccc(Cl)cc3)n[nH]2)cc1 | 1.97 µM (active) | > 150 µM (not active) | > 150 µM (not active) | 
O=C(CN1CCCC1)Nc1c2c(cc3c1CCC3)CCC2 |  |  |  | EC50 [5]: > 195 µM (not active)
CC1(C)Cc2ccccc2-c2nnc(S)n21 |  |  |  | CC50 [6]: 31.5 µM (active)
O=[N+]([O-])c1cc(C(F)(F)F)ccc1NCCc1c[nH]c2ccccc12 |  |  |  | AC50 [3]: 4.48 µM (active)
COc1ccccc1NC(=O)CSc1nc2nnc(C)c-2c(N)n1-c1ccccc1Cl |  |  |  | CC50 [6]: 16.8 µM (active)
CCS(=O)(=O)N1Cc2ccccc2CC1C(=O)Nc1nnc(SCc2ccc(C#N)cc2)s1 (centres undefined) | 16.1 µM (active) | > 150 µM (not active) | 94.3 µM (active) | 
Cc1ccc(C2=Nc3ccccc3NC(C)(c3ccc(C)o3)C2)o1 (centres undefined) |  |  |  | EC50 [7]: > 260 µM (inactive)
Cc1ccc(-c2nc(-c3cccnc3)sc2CC(=O)Nc2ccc3nc(C)sc3c2)cc1 |  |  |  | EC50 [5]: > 195 µM (not active)
Cc1ccccc1C(=O)NC[C@@H]1CCCN2CCCC[C@H]12 |  |  |  | EC50 [5]: 18.6 µM (active)
C=CCNc1cc(C)oc(=O)c1C(=O)CCC |  |  |  | EC50 [5]: > 195 µM (not active)
COc1cccc(-c2cc3nc4c(c(N5CCC6(CC5)OCCO6)n3n2)CCCC4)c1 |  |  |  | AC50 [3]: 4.89 µM (active)
CC(C)Nc1nc(Oc2cccc(Cl)c2Cl)cc(C(F)(F)F)n1 | 6.13 µM (active) | > 150 µM (not active) | 8.83 µM (active) | 
O=C(NCC1(N2CCCCC2)CCCCC1)c1cccc(NS(=O)(=O)c2ccccc2)c1 | > 150 µM (not active) | > 150 µM (not active) | > 150 µM (not active) | 
CCOC(=O)C1=CN(Cc2ccc(OC)cc2)C=C(C(=O)OCC)C1c1cccs1 |  |  |  | EC50 [7]: > 260 µM (inactive)
CCN1C(=O)C(CC(=O)Nc2ccc(OC)cc2)N(CCCN2CCN(c3ccc(F)cc3)CC2)C1=S (centres undefined) |  |  |  | AC50 [3]: 5.53 µM (active)
CC1CCCCN1c1nc(-c2ccncc2)nc2ccccc12 (centres undefined) |  |  |  | EC50 [2]: 0.576 µM (active); CC50 [6]: 44.4 µM (active); EC50 [4]: > 30 µM (not active)
N#Cc1cn(CCOc2ccc(F)cc2)c2ccccc12 |  |  |  | CC50 [6]: 14.1 µM (active)
COC1CCCN(C(=O)c2ccc(OC3CCN(CCc4ccccc4)CC3)cc2)C1 (centres undefined) |  |  |  | EC50 [5]: > 195 µM (not active)
CCC(C)c1ccc(OCc2ccc(C(=O)O)o2)cc1 (centres undefined) |  |  |  | EC50 [5]: 18.7 µM (inconclusive)
